Data: ChEMBL document CHEMBL3352524, “Identification of arylsulfonamides as ExoU inhibitors” (Bioorg Med Chem Lett, 2014)

Key:
Pseudomonas aeruginosa = test: Inhibition of Pseudomonas aeruginosa ExoU expressed in Saccharomyces cerevisiae 14328 harboring pdr1/pdr3 genes assessed as cell death measured as yeast growth recovery at 5 uM after 48 hrs by copper-inducible promoter CUP1 assay; parameters: scale not given: the % may be the effect or the level left
[1] = Toxicity against Saccharomyces cerevisiae 14328 assessed as cell viability at 5 uM after 48 hrs; format: organism-based; settings: Saccharomyces cerevisiae 14328 cells, read-out: Activity
[2] = Cytotoxicity against HEK293T cells assessed as cell viability at 5 uM after 48 hrs; format: cell-based, HEK-293T; settings: human, read-out: Activity

SMILES | Activity (Pseudomonas aeruginosa) | viability at 48 h, 5 µM [1] | viability at 48 h, 5 µM [2]
O=S(=O)(Nc1cccc2ccccc12)c1ccc(C(F)(F)F)cc1 | 45.4% | > 90% | > 90%
O=S(=O)(Nc1ccc2c(c1)OCCO2)c1ccc(C(F)(F)F)cc1 | 27.6% | > 90% | –
COc1ccc(NS(=O)(=O)c2c(C)cc(C)cc2C)cc1OC | 18.5% | > 90% | –
Cc1cc(C)c(NS(=O)(=O)c2ccc3c(c2)OCCO3)c(C)c1 | 21% | 89.1% | –
O=S(=O)(Nc1ccc2c(c1)OCCO2)c1ccc2ccccc2c1 | 36.6% | > 90% | 87.5%
Cc1cc(C)c(S(=O)(=O)NCCOc2ccccc2)c(C)c1 | 23.7% | > 90% | –
CCCc1ccc(OCCNS(=O)(=O)c2c(C)cc(C)cc2C)cc1 | 30.6% | 85.2% | 72.3%
NC(=O)c1cccc2c1-c1ccccc1C2 | 84.7% | > 90% | > 90%
CC(C)(C)c1ccc(S(=O)(=O)Nc2ccc3c(c2)OCCO3)cc1 | 52.2% | > 90% | 87.7%
CCCCCc1ccc(S(=O)(=O)Nc2ccc3c(c2)OCCO3)cc1 | 9% | > 90% | –
Cc1cc(C)c(S(=O)(=O)Nc2ccc3c(c2)OCCO3)c(C)c1 | 60.2% | > 90% | > 90%
